# Laboratory results: US20240262833A1, “FUSED HETEROCYCLIC DERIVATIVES AS NEGATIVE ALLOSTERIC MODULATORS OF MGLU7 RECEPTOR” (Addex Pharma S.A., priority 2021, published 2024)
# Target: T1, human metabotropic glutamate 7 receptor (hmGlu7) (Homo sapiens, UniProt Q14831)
# T1 construct: expressed in transfected cells
# Experiment: mGlu7 assay on HEK-expressing human mGlu7: fluorescent cell based Ca2+ mobilization assay (FLIPR), inhibition of EC80 L-AP4 response
# Details: HEK-293 cells expressing hmGlu7; EC80 L-AP4 stimulation; mean of at least three independent experiments in duplicate; read-out: Ca2+ Flux (mean IC50)
# From the text: mGlu7 Assay on HEK-Expressing Human mGlu7
# The cDNA encoding the human metabotropic glutamate 7 receptor (hmGlu7), (accession number NM_181874.2, NCBI Nucleotide database browser), was subcloned into an expression vector containing also the hygromycin resistance gene. In parallel, the cDNA encoding a G protein allowing redirection of the activation signal to intracellular calcium flux was subcloned into a different expression vector containing also the Puromycin resistance gene. Transfection of both these vectors into HEK293 cells with PolyFect reagent (Qiagen) according to supplier's protocol, and hygromycin and puromycin treatment allowed selection of antibiotic resistant cells which had integrated stably one or more copies of the plasmids. Positive cellular clones expressing hmGlu7 were identified in a functional assay measuring changes in calcium fluxes in response to glutamate and L-AP4 or known mGlu7 orthosteric antagonists.
# HEK-293 cells expressing hmGlu7 were maintained in media containing DMEM, Fetal Bovine Serum (10%), Glutamax™ (2 mM), penicillin (100 units/mL), streptomycin (100 μg/mL), geneticin (100 μg/mL) and hygromycin-B (40 μg/mL) and puromycin (1 μg/mL) at 37° C. with 5% CO2 in a humidified atmosphere.
# Fluorescent Cell Based-Ca^2+ Mobilization Assay Human mGlu7 HEK-293 cells were plated out 24 hours prior to a fluorescent cell-based calcium mobilization assay using FLIPR^384 assay (Molecular Device, Sunnyvale, CA, USA) in black-walled, clear-bottomed, poly-L-ornithine-coated 384-well plates at a density of 25,000 cells/well in a glutamine/glutamate free DMEM medium containing fetal bovine serum (10%), penicillin (100 units/mL), streptomycin (100 μg/mL) and doxycyline (1 μg/ml) at 37° C. with 5% CO2 in a humidified atmosphere.
# On the day of the assay, the medium was aspirated and the cells were loaded with a 3 μM solution of Fluo4-AM (LuBioScience, Lucerne, Switzerland) in 0.03% pluronic acid. After 1 hour at 37° C./5% CO2, the non incorporated dye was removed by washing cell plate with the assay buffer. All assays were performed in a pH 7.4 buffered-solution containing 20 mM HEPES, 143 mM NaCl, 6 mM KCl, 1 mM MgSO4, 1 mM CaCl2, 0.125 mM sulfinpyrazone and 0.1% glucose.
# After 10 s of basal fluorescence recording, various concentrations of the compounds of the invention were added to the cells. Changes in fluorescence levels were first monitored for 180 s in order to detect any agonist activity of the compounds. Then the cells were stimulated by an EC80 L-AP4 concentration for an additional 110 s in order to measure inhibiting activities of the compounds of the invention. EC80 L-AP4 concentration is the concentration giving 80% of the maximal glutamate response.
# The concentration-response curves of L-AP4 or representative compounds of the present invention were generated using the Prism GraphPad software (Graph Pad Inc, San Diego, USA). The curves were fitted to a four-parameter logistic equation: […]
# allowing determination of IC50 values.
# The Table 3 below represents the mean IC50 obtained from at least three independent experiments of selected molecules performed in duplicate.
# T1 sequence (Q14831 35-922 isoform Q14831-2): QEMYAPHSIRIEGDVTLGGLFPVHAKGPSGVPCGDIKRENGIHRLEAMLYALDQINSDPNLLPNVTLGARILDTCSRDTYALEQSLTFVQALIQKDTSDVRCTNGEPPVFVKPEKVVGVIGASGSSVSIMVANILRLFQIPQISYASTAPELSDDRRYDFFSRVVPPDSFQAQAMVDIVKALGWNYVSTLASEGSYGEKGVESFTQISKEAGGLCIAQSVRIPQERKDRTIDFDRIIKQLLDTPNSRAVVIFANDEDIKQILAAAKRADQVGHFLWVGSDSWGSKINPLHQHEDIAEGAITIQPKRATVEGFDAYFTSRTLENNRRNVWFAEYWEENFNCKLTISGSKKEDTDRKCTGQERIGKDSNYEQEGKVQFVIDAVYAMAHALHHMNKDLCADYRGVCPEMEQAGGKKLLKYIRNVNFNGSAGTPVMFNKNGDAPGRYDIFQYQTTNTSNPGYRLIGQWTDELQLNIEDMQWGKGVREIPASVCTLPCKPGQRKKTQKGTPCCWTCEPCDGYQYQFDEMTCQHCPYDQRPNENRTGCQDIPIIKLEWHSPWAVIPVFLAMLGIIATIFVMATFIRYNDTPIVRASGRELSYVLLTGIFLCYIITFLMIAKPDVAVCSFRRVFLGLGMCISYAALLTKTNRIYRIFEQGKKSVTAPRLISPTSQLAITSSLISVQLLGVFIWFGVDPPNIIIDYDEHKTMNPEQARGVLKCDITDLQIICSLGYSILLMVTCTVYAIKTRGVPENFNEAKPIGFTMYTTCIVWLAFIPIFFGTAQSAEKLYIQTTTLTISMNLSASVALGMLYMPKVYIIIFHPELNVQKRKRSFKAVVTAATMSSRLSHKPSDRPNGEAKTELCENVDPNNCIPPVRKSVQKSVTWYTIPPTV
row,SMILES,IC50
1,Cc1c(OC2CC2)cccc1-n1c(C)c2cnn(-c3ncccc3F)c(=O)c2c1C [1-211],< 100 nM
2,COCCNc1ccc(-n2c(C)c3cnn(-c4ccccc4)c(=O)c3c2C)cc1 [1-42],1000 to 10000 nM
3,"Cc1c2cnn(-c3ccc(N4CCCC4)cc3)c(=O)c2c(C)n1-c1cccc(N2CCC2)c1 [1-168, 6-(3-(Azetidin-1-yl)phenyl)-5,7-dimethyl-2-(4-(pyrrolidin-1-yl)phenyl)-2,6-dihydro-1H-pyrrolo[3,4-d]pyridazin-1-one]",100 to 1000 nM
4,Cc1ccc(-n2ncc3c(C)n(-c4cccc(N5CCC5)c4)c(C)c3c2=O)nc1 [1-155],< 100 nM
5,Cc1c2cnn(-c3ccc(I)cc3)c(=O)c2c(C)n1-c1cccc(N2CCC2)c1 [1-181],1000 to 10000 nM
6,"Cc1c2cnn(-c3ccc(C(C)(C)O)cc3)c(=O)c2c(C)n1-c1cccc(N2CCC2)c1 [1-170, 6-(3-(Azetidin-1-yl)phenyl)-2-(4-(2-hydroxypropan-2-yl)phenyl)-5,7-dimethyl-2,6-dihydro-1H-pyrrolo[3,4-d]pyridazin-1-one]",< 100 nM
7,COc1cc(-n2c(C)c3cnn(-c4ccccn4)c(=O)c3c2C)ccn1 [1-62],1000 to 10000 nM
8,COc1cccc(-n2c(C)c3cnn(-c4ccc(C(F)(F)F)cn4)c(=O)c3c2C)c1 [1-122],100 to 1000 nM
9,CNC(=O)c1ccc(-n2ncc3c(C)n(-c4cccc(OC)c4)c(C)c3c2=O)cc1 [1-113],100 to 1000 nM
10,COc1ccccc1-n1c(C)c2cnn(-c3ccccn3)c(=O)c2c1C [1-193],1000 to 10000 nM
11,Cc1c2cnn(-c3ncccc3F)c(=O)c2c(C)n1-c1cccc2c1ccn2C1CC1 [1-213],< 100 nM
12,Cc1ccc(-n2c(C)c3cnn(-c4ccccc4)c(=O)c3c2C)c(C)c1 [1-32],100 to 1000 nM
13,Cc1c2cnn(-c3ncccc3F)c(=O)c2c(C)n1-c1cc(N2CCC2)ccc1F [1-217],< 100 nM
14,Cc1c2cnn(-c3ccc(S(=O)(=O)N(C)C)cc3)c(=O)c2c(C)n1-c1ccccc1 [1-87],100 to 1000 nM
15,CCc1c2cnn(-c3ccccn3)c(=O)c2c(C)n1-c1cccc(OC)c1 [1-140],1000 to 10000 nM
16,Cc1c2cnn(-c3ccc(Cl)cn3)c(=O)c2c(C)n1-c1cccc(N2CCC2)c1 [1-183],< 100 nM
17,COc1cccc(-n2c(C)c3cnn(-c4cncc(OC)c4)c(=O)c3c2C)c1 [1-94],100 to 1000 nM
18,COc1cccc(-n2c(C)c3cnn(-c4ccc(CNC(C)=O)cc4)c(=O)c3c2C)c1 [1-65],< 100 nM
19,Cc1c2cnn(-c3ccccc3)c(=O)c2c(C)n1-c1cccc(N2CCCC2=O)c1 [1-49],100 to 1000 nM
20,COc1cccc(-n2c(C)c3cnn(-c4ccc(CO)cc4)c(=O)c3c2C)c1 [1-66],< 100 nM
21,Cc1c2cnn(-c3ccccn3)c(=O)c2c(C)n1-c1cccc(OC2CC2)c1F [1-235],100 to 1000 nM
22,Cc1c2cnn(-c3ccc(CO)cc3)c(=O)c2c(C)n1-c1ccccc1 [1-92],100 to 1000 nM
23,COc1ccc(-n2c(C)c3cnn(-c4ccc(CNC(C)=O)cc4)c(=O)c3c2C)cc1 [1-106],100 to 1000 nM

row,SMILES,IC50
1,Cc1c2cnn(C3CCCC3)c(=O)c2c(C)n1-c1cccc(N2CCC2)c1 [1-190],100 to 1000 nM
2,Cc1c2cnn(-c3ccccc3)c(=O)c2c(C)n1-c1ccccc1Cl [1-19],100 to 1000 nM
3,Cc1c2cnn(-c3ncc(F)cn3)c(=O)c2c(C)n1-c1cc(F)cc(N2CCC2)c1 [1-208],< 100 nM
4,Cc1c2cnn(-c3ccccn3)c(=O)c2c(C)n1-c1cccc(N2CCCC2=O)c1 [1-111],1000 to 10000 nM
5,Cc1c2cnn(-c3ccccn3)c(=O)c2c(C)n1-c1cccc(C(F)(F)F)c1 [1-53],100 to 1000 nM
6,COc1cccc(-n2c(C)c3cnn(-c4cccnc4)c(=O)c3c2C)c1 [1-41],100 to 1000 nM
7,Cc1c2cnn(-c3ccccn3)c(=O)c2c(C)n1-c1cccc(Oc2ccccc2)c1 [1-187],1000 to 10000 nM
8,Cc1ccc(-n2c(C)c3cnn(-c4cccnc4)c(=O)c3c2C)cc1 [1-39],100 to 1000 nM
9,"Cc1c2cnn(-c3ccccn3)c(=O)c2c(C)n1-c1ccc2ccn(C)c2c1 [1-96, 5,7-Dimethyl-6-(1-methyl-1H-indol-6-yl)-2-(pyridin-2-yl)-2,6-dihydro-1H-pyrrolo[3,4-d]pyridazin-1-one]",1000 to 10000 nM
10,Cc1c2cnn(-c3ccccn3)c(=O)c2c(C)n1-c1cccc(N2CCC(C)(C)C2)c1 [1-179],100 to 1000 nM
11,Cc1c2cnn(-c3nccs3)c(=O)c2c(C)n1-c1cccc(N2CCC2)c1 [1-227],1000 to 10000 nM
12,COc1cccc(-n2c(C)c3cnn(-c4cccc(OC)n4)c(=O)c3c2C)c1 [1-74],1000 to 10000 nM
13,Cc1cnc(-n2ncc3c(C)n(-c4cccc(N5CCC5)c4)c(C)c3c2=O)nc1 [1-228],< 100 nM
14,Cc1c2cnn(-c3ccc(N4CCOCC4)cc3)c(=O)c2c(C)n1-c1cccc(N2CCC2)c1 [1-219],100 to 1000 nM
15,COc1ccc(-n2ncc3c(C)n(-c4cccc(OC)c4)c(C)c3c2=O)cc1 [1-97],< 100 nM
16,Cc1cnc(-n2ncc3c(C)n(-c4cccc(OC5CC5)c4C)c(C)c3c2=O)nc1 [1-205],< 100 nM
17,Cc1c2cnn(-c3ccccc3)c(=O)c2c(C)n1-c1ccccn1 [1-25],1000 to 10000 nM
18,Cc1cccc(-n2ncc3c(C)n(-c4cccc(N5CCOCC5)c4)c(C)c3c2=O)c1 [1-84],1000 to 10000 nM
19,Cc1c(O)cccc1-n1c(C)c2cnn(-c3ccc(N4CCOCC4)cc3)c(=O)c2c1C [1-220],1000 to 10000 nM
20,Cc1c2cnn(-c3ncccn3)c(=O)c2c(C)n1-c1cccc2c1ccn2C1CC1 [1-198],< 100 nM
21,Cc1c2cnn(-c3ncccn3)c(=O)c2c(C)n1-c1cccc(N2CCC2)c1 [1-223],100 to 1000 nM
22,COc1cccc(-n2c(C)c3cnn(-c4ccccc4Cl)c(=O)c3c2C)c1 [1-150],100 to 1000 nM
23,COc1cccc(-n2c(C)c3cnn(-c4ncccn4)c(=O)c3c2C)c1Cl [1-203],100 to 1000 nM

row,SMILES,IC50
1,COc1cccc(-n2c(C)c3cnn(-c4cccc(CC#N)c4)c(=O)c3c2C)c1 [1-146],< 100 nM
2,CCOc1cccc(-n2ncc3c(C)n(-c4cccc(OC)c4)c(C)c3c2=O)c1 [1-144],< 100 nM
3,CC(=O)c1ccc(-n2ncc3c(C)n(-c4cccc(N5CCC5)c4)c(C)c3c2=O)cc1 [1-171],< 100 nM
4,Cc1c2cnn(-c3ncccc3F)c(=O)c2c(C)n1-c1cccc(N2CCC2)c1 [1-225],< 100 nM
5,COc1cccc(-n2c(C)c3cnn(-c4cccc(C(N)=O)c4)c(=O)c3c2C)c1 [1-73],100 to 1000 nM
6,Cc1c2cnn(-c3ccccn3)c(=O)c2c(C)n1-c1cccc(N2CC(F)(F)C2)c1 [1-153],100 to 1000 nM
7,Cc1c2cnn(-c3ccc(F)cc3)c(=O)c2c(C)n1-c1ccccc1 [1-11],< 100 nM
8,Cc1c2cnn(-c3ncccn3)c(=O)c2c(C)n1-c1ccccc1 [1-58],1000 to 10000 nM
9,COc1ccccc1-n1ncc2c(C)n(-c3cccc(N4CCC4)c3)c(C)c2c1=O [1-176],100 to 1000 nM
10,COc1cccc(-n2c(C)c3cnn(-c4ccc(O)cc4)c(=O)c3c2C)c1 [1-145],< 100 nM
11,COc1cc(F)ccc1-n1c(C)c2cnn(-c3ccccn3)c(=O)c2c1C [1-191],1000 to 10000 nM
12,COc1cccc(-n2c(C)c3cnn(-c4cccc(C(C)=O)c4)c(=O)c3c2C)c1 [1-147],100 to 1000 nM
13,Cc1ccc(-n2c(C)c3cnn(-c4cccc(C)c4)c(=O)c3c2C)cc1 [1-99],100 to 1000 nM
14,Cc1c2cnn(-c3ccc(F)cn3)c(=O)c2c(C)n1-c1cccc(N2CCC2)c1 [1-173],< 100 nM
15,Cc1c2cnn(-c3ccccc3Cl)c(=O)c2c(C)n1-c1ccccc1 [1-20],100 to 1000 nM
16,COCc1ccc(-n2ncc3c(C)n(-c4cccc(N5CCOCC5)c4)c(C)c3c2=O)cc1 [1-69],100 to 1000 nM
17,COc1ccc(-n2ncc3c(C)n(-c4cccc(N5CCC5)c4)c(C)c3c2=O)cc1CO [1-163],< 100 nM
18,Cc1c2cnn(-c3ccc(N4CCNC(=O)C4)cc3)c(=O)c2c(C)n1-c1cccc(N2CCC2)c1 [1-178],< 100 nM
19,CCc1ccc(-n2c(C)c3cnn(-c4ccccn4)c(=O)c3c2C)cc1 [1-86],100 to 1000 nM
20,COc1ccc(-n2c(C)c3cnn(-c4ccccc4)c(=O)c3c2C)cc1 [1-24],100 to 1000 nM
21,Cc1c2cnn(-c3ccc(C#N)cc3)c(=O)c2c(C)n1-c1ccccc1 [1-17],100 to 1000 nM
